Assay results: ChEMBL document CHEMBL1177812, “Hydroxysafflor Yellow A suppresses thrombin generation and inflammatory responses following focal cerebral ischemia-reperfusion in rats” (2010)
Activity calls are given as the source filed them. The rule behind the calls is not given here.

What was measured:
Rattus norvegicus [1] = assay: Neuroprotective activity against ischemia reperfusion injury in Wistar rat assessed as […] 1+2 at 8 mg/kg, iv by enzyme immunoassay (RVb = 1.97 +/- 0.44 ug/L); assay type: functional
Rattus norvegicus [2] = assay: Neuroprotective activity against ischemia reperfusion injury in Wistar rat assessed as thrombin-antithrombin complex at 2 mg/kg, iv by enzyme immunoassay (RVb = 3.45 +/- 0.57 ug/L); assay type: functional
Rattus norvegicus [3] = assay: Neuroprotective activity against ischemia reperfusion injury in Wistar rat assessed as thrombin-antithrombin complex at 4 mg/kg, iv by enzyme immunoassay (RVb = 3.45 +/- 0.57 ug/L); assay type: functional
Rattus norvegicus [4] = assay: Neuroprotective activity against ischemia reperfusion injury in Wistar rat assessed as […] 1+2 at 4 mg/kg, iv by enzyme immunoassay (RVb = 1.97 +/- 0.44 ug/L); assay type: functional
Rattus norvegicus [5] = assay: Neuroprotective activity against ischemia reperfusion injury in Wistar rat assessed as […] 1+2 at 2 mg/kg, iv by enzyme immunoassay (RVb = 1.97 +/- 0.44 ug/L); assay type: functional
Rattus norvegicus [6] = assay: Neuroprotective activity against ischemia reperfusion injury in Wistar rat assessed as thrombin-antithrombin complex at 8 mg/kg, iv by enzyme immunoassay (RVb = 3.45 +/- 0.57 ug/L); assay type: functional
Rattus norvegicus [7] = assay: Neuroprotective activity against ischemia reperfusion injury in Wistar rat assessed as factor 7 level at 4 mg/kg, iv by amidolytic method (RVb = 1.24 +/- 0.34 mg/L); assay type: functional
Rattus norvegicus [8] = assay: Neuroprotective activity against ischemia reperfusion injury in Wistar rat assessed as factor 7 level at 8 mg/kg, iv by amidolytic method (RVb = 1.24 +/- 0.34 mg/L); assay type: functional
Rattus norvegicus [9] = assay: Neuroprotective activity against ischemia reperfusion injury in Wistar rat assessed as factor 7 level at 2 mg/kg, iv by amidolytic method (RVb = 1.24 +/- 0.34 mg/L); assay type: functional
Rattus norvegicus [10] = assay: Neuroprotective activity against ischemia reperfusion injury in Wistar rat assessed as fibrinogen level at 8 mg/kg, iv by polymerization time method (RVb = 1.45 +/- 0.35 g/L); assay type: functional
Rattus norvegicus [11] = assay: Neuroprotective activity against ischemia reperfusion injury in Wistar rat assessed as fibrinogen level at 4 mg/kg, iv by polymerization time method (RVb = 1.45 +/- 0.35 g/L); assay type: functional
Rattus norvegicus [12] = assay: Neuroprotective activity against ischemia reperfusion injury in Wistar rat assessed as fibrinogen level at 2 mg/kg, iv by polymerization time method (RVb = 1.45 +/- 0.35 g/L); assay type: functional
Rattus norvegicus [13] = assay: Neuroprotective activity against ischemia reperfusion injury in Wistar rat hippocampal formation assessed as reduction in prothrombin mRNA level at 2 to 8 mg/kg, iv; assay type: functional, organism-based; conditions: Hippocampus
Rattus norvegicus [14] = assay: Neuroprotective activity in Wistar rat assessed as ischemia reperfusion injury-induced plasma angiotensin level at 2 to 8 mg/kg, iv by radioimmunoassay; assay type: functional, organism-based
Rattus norvegicus [15] = assay: Antiinflammatory activity in Wistar rat assessed as reduction in ischemia reperfusion injury-induced ICAM1 protein expression at 2 to 8 mg/kg, iv by Western blotting; assay type: functional, organism-based
Rattus norvegicus [16] = assay: Antiinflammatory activity in Wistar rat assessed as reduction in ischemia reperfusion injury-induced ICAM1 mRNA expression at 2 to 8 mg/kg, iv by RT-PCR; assay type: functional, organism-based
Rattus norvegicus [17] = assay: Antiinflammatory activity in Wistar rat brain assessed as reduction in ischemia reperfusion injury-induced MPO activity at 2 to 8 mg/kg, iv; assay type: functional, organism-based
Rattus norvegicus [18] = assay: Antiinflammatory activity in Wistar rat brain assessed as inhibition of ischemia reperfusion injury-induced NF-kappaB nuclear translocation at 2 to 8 mg/kg, iv; assay type: functional, organism-based
Rattus norvegicus [19] = assay: Antiinflammatory activity in Wistar rat hippocampus assessed as reduction in ischemia reperfusion injury-induced IkappaB alpha protein expression at 2 to 8 mg/kg, iv by Western blotting; assay type: functional, organism-based
Rattus norvegicus [20] = assay: Antiinflammatory activity in Wistar rat brain assessed as inhibition of ischemia reperfusion injury-induced p65 subunit binding to DNA at 2 to 8 mg/kg, iv by EMSA; assay type: functional, organism-based

## O=C(/C=C/c1ccc(O)cc1)C1=C(O)C(O)([C@@H]2O[C@H](CO)[C@@H](O)[C@H](O)[C@H]2O)C(O)=C([C@@H]2O[C@H](CO)[C@@H](O)[C@H](O)[C@H]2O)C1=O (stereo not given in full) [HYDROXYSAFFLOR YELLOW A]
Rattus norvegicus [1]
  Activity: 0.54 µg/L
Rattus norvegicus [2]
  Activity: 2.39 µg/L
Rattus norvegicus [3]
  Activity: 1.89 µg/L
Rattus norvegicus [4]
  Activity: 0.8 µg/L
Rattus norvegicus [5]
  Activity: 1.38 µg/L
Rattus norvegicus [6]
  Activity: 1.48 µg/L
Rattus norvegicus [7]
  Activity: 1.19 mg/L
Rattus norvegicus [8]
  Activity: 1.01 mg/L
Rattus norvegicus [9]
  Activity: 1.21 mg/L
Rattus norvegicus [10]
  Activity: 1.55 g/L
Rattus norvegicus [11]
  Activity: 1.9 g/L
Rattus norvegicus [12]
  Activity: 2.06 g/L
Rattus norvegicus [13]
  Activity: Active
Rattus norvegicus [14]
  Activity: Active
Rattus norvegicus [15]
  Activity: Active
Rattus norvegicus [16]
  Activity: Active
Rattus norvegicus [17]
  Activity: Active
Rattus norvegicus [18]
  Activity: Active
Rattus norvegicus [19]
  Activity: Active
Rattus norvegicus [20]
  Activity: Active
